{"source": "patent US12691124B2", "about": "“Methods of controlling and improving brain health” (ICAHN SCHOOL OF MEDICINE AT MOUNT SINAI, priority 2019, dated 2026)", "key": {"young mice": {"tested_on": "young mice", "details": "cited from earlier work"}, "[1]": {"tested_on": "primary cortical neurons exposed to glutamate", "assay": "Glutamate excitotoxicity in primary cortical neurons", "type": "cell-based, mouse", "description": "LDH Assay. LDH activity was measured using the Pierce LDH Cytotoxicity Assay Kit. Culture media was incubated with an equal volume of LDH master mix and incubated for 30 minutes at room temperature in the dark. After, the same volume of stop reagent was added and the absorbance was measured at 490 and 680 nm. Maximum LDH measurements were obtained by adding lysis buffer to release the total amount of LDH in the sample. LDH release is calculated as a percent of the maximum.\nPropidium Iodide Assay. Propidium iodide (1 mg/ml, Life Technologies #P3566) was added to each culture well at a final concentration of 0.5 μg/ml. Cultures were incubated for 30 minutes at 37 degrees then washed with PBS. Cells were then fixed with 4% paraformaldehyde in PBS for 15 minutes at room temperature. After fixation, cells were washed with PBS and then mounted using mounting media containing DAPI.\nIn addition to increasing longevity, rapamycin treatment protects neurons from toxic stimuli such as excessive glutamate. […] Because IBET858 increased neuronal lifespan to the same extent as rapamycin, it was hypothesized that BET inhibition could also induce a protective state in neurons. To test if IBET858 can prevent neuronal death, the neurons were exposed to excitotoxic levels of glutamate, a common in vitro assay that mirrors neuronal death observed in vivo after stroke or neurodegeneration. High levels of glutamate cause a strong influx of calcium into the neuron ultimately leading to necrosis followed by apoptosis.\nNeurons were treated with IBET858 for increasing durations (2 h, 24 h, 72 h or 1 week) before stimulation with an excitotoxic amount of glutamate (1 mM) on day 14 when mature synapses fully express glutamate receptors. Chronic but not acute BET inhibition increases neuronal survival in response to glutamate toxicity, as measured by the LDH assay. […] Therefore a 1 week treatment time point was used for all subsequent experiments."}, "BRD2 or BRD4": {"tested_on": "BRD2 or BRD4", "assay": "ChIP sequencing, BRD2 or BRD4 promoter occupancy versus gene expression", "type": "cell-based, mouse", "description": "Chromatin Immunoprecipitation with Sequencing. Primary cortical neuronal cultures were washed once with PBS then fixed for 10 minutes with a 1% formaldehyde solution in PBS with protease inhibitors (Sigma #P8340) at room temperature. Fixation was quenched adding glycine to a final concentration of 0.125M (5 minutes, room temperature). 10e6 fixed cells were resuspended in 1 ml of lysis buffer (50 mM Hepes KOH, pH7.5, 140 mM NaCl, 1 mM EDTA, 10% glycerol, 0.5% NP-40, 0.25% Triton X-100) and 10 ul of protease inhibitor cocktail (PIC). Samples were rotated for 10 minutes at 4 degrees then spun at 1350 g at 4 C for 10 minutes. Pellets were resuspended in 1 ml of lysis buffer 2 (10 mM Tris-HCl pH8.0, 200 mM NaCl, 1 mM EDTA, 0.5 mM EGTA) and 10 ul PIC.). 5e6 nuclei were sonicated in lysis buffer 3 (10 mM Tris-HCl pH8.0, 100 mM NaCl, 1 mM EDTA, 0.5 mM EGTA, 0.1% Na-Deoxicholate, 0.5% N-Lauroylsarcosine) at 4 degrees for 5 cycles of 30 seconds ON/30 seconds OFF using the Diagenode bioruptor. After, 30 ul of 10% Triton-X100 was added to each sample and then spun for 15 minutes at 20,000 g at 4 degrees. Sonication efficiency was checked by running the samples on a 2% agarose gel to confirm enrichment for fragments from 200-500 bps.\nStreptavidin M-280 dynabeads were blocked with 0.5% BSA solution and coupled to 7 ug of antibody (Brd4 #Ab84778, Brd2 Bethyl #A302-583A, Pol2 Ser5 #Ab5408) for at least 8 hours at 4 degrees, rotating. Antibody-coupled beads were then added to sonicated chromatin (20e6 cells for Brd2/Brd4, 10e6 for Pol2) and incubated overnight at 4 degrees. After washing the IPs eight times with wash buffer (50 mM Hepes-KOH pH7.6, 100 mM LiCl, 1 mM EDTA, 1% NP-40, 0.7% Na-Deoxycholate) and once with TE buffer (10 mM Tris-HCl, 1 mM EDTA, 50 mM NaCl), Chromatin was eluted from magnetic beads in 200 ul elution buffer ([…] Tris-HCl pH8.0, 10 mM EDTA, 1% SDS) for 45 minutes at 65 degrees. Samples were de-crosslinked overnight at 65 degrees and proteins and RNA were removed by incubating with RNAse and proteinase k. Samples were purified using the Qiagen PCR purification kit according to the manufacturers protocol.\nSamples were end-repaired using the End-IT DNA End-Repair Kit (#ER0720). After 45 minutes incubation, samples were purified using the Qiagen PCR Clean up kit as described above. Samples were adenylated using a reaction mix (200 uM dATP, 1× Klenow buffer NEB2, Klenow Fragment (3′ to 5′ exo-), NEB M0212L) and incubating at 37 degrees for 30 minutes. After, samples were purified as above except using the Minelute columns to minimize sample loss. Adapters were ligated to samples using a reaction mix containing T4 DNA ligase buffer, Solexa adapter oligo mix and 1200 units of T4 DNA ligase. The samples were incubated according to the following PCR program: 1) 20 C for 15 min, 2) 4 C for 2 h, 3) 0.1 C/sec to 16 C, 4) 16 C for 20 min, 5) 0.1 C/sec to 4 C, 6) back to step 2 for 6 cycles. Samples were purified using the Minelute kit as described above. Samples were amplified using a reaction mix containing the Phusion HF buffer, 300 uM dNTP mix, 3% DMSO, diluted Solexa primers 1.0 and 2.0, and 1 unit of Phusion polymerase. Samples were amplified according to the following program: 1) 30 sec at 98 C, 2) 18 cycles of: 10 sec at 98 C, 30 sec at 65 C, 30 sec at 72 C, 3) 5 min 72 C. Prepared samples were then sequenced on the HiSeq 2000 platform by Rockefeller's Genomic Core Facility. Bioinformatic analysis was performed by the Shen Lab. Briefly, raw sequencing data was processed by using Illumina bcl2fastq2 Conversion Software v2.17. The ChIP-seq data was first checked for quality using the various metrics generated by FastQC. Raw sequencing reads were then aligned to the mouse mm9 genome using the default settings of Bowtie (v2.2.0)87. Only uniquely mapped reads were retained, and the alignments were subsequently filtered using the SAMtools package (v0.1.19)88 to remove duplicate reads. […]"}}}
{"compound": "CC(=O)N1c2ccc(-c3ccc(CN4CCCCC4)cc3)cc2[C@H](Nc2ccccc2)CC1C", "note": "(stereo in doubt) [IBET858]", "values": [{"measurement": "neuronal gene expression in young mice", "setting": "young mice; mouse, in vivo", "result": "selective suppression of neuronal gene expression"}, {"measurement": "behavioural phenotype of young mice", "setting": "young mice; pharmacological suppression of BET proteins in the brain of young mice", "result": "development of an autism-like syndrome"}, {"measurement": "protection from excitotoxicity, IBET858 compared with rapamycin", "setting": "[1]; 1 week IBET858 1 μM, Rapamycin 20 nM, 1 mM glutamate", "result": "as well as rapamycin"}, {"measurement": "cell death after glutamate exposure, propidium iodide", "setting": "[1]; 1 week pretreatment, 1 mM glutamate", "result": "fewer neurons treated with IBET858 die"}, {"measurement": "excitotoxicity-induced neuronal death, LDH assay", "setting": "[1]; 1 week pretreatment, 1 mM glutamate, day 14", "result": "almost completely prevents"}, {"measurement": "excitotoxicity-induced neuronal death, LDH assay", "setting": "[1]; 72 h pretreatment, 1 mM glutamate", "result": "mild protective effect"}, {"measurement": "neuroprotective phenotype after washout, glutamate exposure", "setting": "[1]; temporary pretreatment, wash out, 4 days on DMSO, 1 mM glutamate day 14", "result": "neuroprotective phenotype that is maintained even in the absence of IBET"}, {"measurement": "displacement of BET proteins from the chromatin", "setting": "BRD2 or BRD4", "result": "displaces all three BET proteins from the chromatin"}, {"measurement": "down-regulated genes that are bound by Brd2 or Brd4", "setting": "BRD2 or BRD4; 1 week IBET858, 844/1391", "result": 61, "unit": "%"}, {"measurement": "genes with increased promoter occupancy of BRD2 or BRD4 that are also transcriptionally upregulated", "setting": "BRD2 or BRD4; 6 h IBET858", "result": 212, "unit": "genes"}, {"measurement": "genes with reduced promoter occupancy of BRD2 or BRD4 that are also transcriptionally downregulated", "setting": "BRD2 or BRD4; 6 h IBET858", "result": 528, "unit": "genes"}, {"measurement": "down-regulated genes that are bound by Brd2 or Brd4", "setting": "BRD2 or BRD4; 12 h IBET858, 733/1158", "result": 63, "unit": "%"}, {"measurement": "gene promoters with reduced BET binding", "setting": "BRD2 or BRD4; short-term treatment 6 h", "result": "approximately 1000 gene promoters"}]}
